Data reported in patent US7854946B1, “Anti-inflammatory and anti-HIV compositions and methods of use” (Iowa State University Research Foundation, Inc., priority 2007, dated 2010).

Columns and labels:
Type in all cases: cell-based, mouse
[1] = system: PGE2 production in LPS-induced macrophages; assay: PGE2 assay in LPS-induced RAW264.7 macrophages; conditions: pure compound in cell media, 1 μg/ml LPS, 8 hours
Protocol: RAW264.7 macrophages were purchased from the American Type Culture Collections (ATCC; […] Cells were plated at a density of 1.0×10^5 cells/well in 24-well cell culture plates and allowed to attach overnight. […] Louis, Mo.) and solvent alone, dimethylsulfoxide (DMSO) (Sigma, St. Louis, Mo.), or H. gentianoides extract or fraction simultaneously for 8 hours. Cell supernatants were collected on ice, and stored in a −70° C. freezer for use in the PGE2 assay. […] Four controls were included in each treatment: media alone, media and DMSO, media and LPS, and media and LPS and DMSO. In addition, 10 μM quercetin was used as a positive control. Since H. perforatum contains light-activated compounds, the H. gentianoides extract was tested in both light-activated and dark conditions initially to determine if the activity was dependent on light activation. […] The supernatant samples were assayed with a Prostaglandin E2 EIA kit (GE Biosciences, Piscataway, N.J.) according to manufacturer's instructions. […] Data is shown as mean percent reduction in LPS-induced PGE2 levels±the standard error as compared to the media+LPS+DMSO control. Statistical significance was determined by an F-protected two-way ANOVA followed by a Tukey-Kramer test for multiple comparisons (Snedecor, G. W., Cochran, W. G., Eds. (1989). Statistical Methods, 8th ed. University Press: Ames, Iowa). For cytotoxicity, data are represented as mean % cytotoxicity±standard error as compared to the media+DMSO control. Statistical significance was determined by an F-protected two-way ANOVA followed by a Dunnett-Hsu test for multiple comparisons (Dunnett C. W. (1955). “A multiple comparison procedure for comparing several treatments with a control.” Journal of the American Statistical Association. 50:1096-1121). […] The ability of H. gentianoides extracts to reduce the inflammatory response was assessed by quantifying PGE2 production in LPS-induced macrophages. […]

RAW264.7 macrophages = assay: CellTiter96 cytotoxicity assay in RAW264.7 macrophages
Protocol: CellTiter96® Aqueous One Solution cell proliferation assay (Promega Corporation, Madison, Wis.) was used as previously described in Schmitt et al. with an 8-hour treatment incubation instead of 24-hour treatment incubation to parallel the anti-inflammatory studies (Schmitt, L. A., et al., (2006)). Following the 8 hour incubation, treatment solutions were removed and fresh media and Celltiter96® dye were added for 3 hours and 15 minutes (Schmitt, L. A., et al., (2006)). The metabolized dye solutions were transferred to 96-well plates for absorbance measurement at 490 nm. The number of viable cells for each treatment was compared to the media+DMSO solvent control. Treatment with 20 μM hypericin was used as a positive control. Data is shown as mean percent reduction in LPS-induced PGE2 levels±the standard error as compared to the media+LPS+DMSO control. Statistical significance was determined by an F-protected two-way ANOVA followed by a Tukey-Kramer test for multiple comparisons (Snedecor, G. W., Cochran, W. G., Eds. (1989). Statistical Methods, 8th ed. University Press: Ames, Iowa). For cytotoxicity, data are represented as mean % cytotoxicity±standard error as compared to the media+DMSO control. Statistical significance was determined by an F-protected two-way ANOVA followed by a Dunnett-Hsu test for multiple comparisons (Dunnett C. W. (1955). “A multiple comparison procedure for comparing several treatments with a control.” Journal of the American Statistical Association. 50:1096-1121).

cyclooxygenase-1 = assay: Western blot of COX-1 protein in LPS-induced RAW 264.7 macrophages; conditions: 8 hour treatment
cyclooxygenase-2 = assay: Western blot of COX-2 protein in LPS-induced RAW 264.7 macrophages; conditions: 8 hour treatment, dose not given
Protocol: FIG. 9. […] After an 8 hour treatment with lipopolysaccharide (LPS) and H. gentianoides fractions, a protein extraction was performed on the RAW 264.7 macrophages. Separation of the proteins was carried out on a discontinuous (4% stacking, 10% resolving) sodium dodecyl sulfate-polyacrylamide (30% acrylamide/bis solution) (BioRad; Hercules, Calif.) gel, followed by transfer to a PVDF membrane (GE Healthcare; Piscataway, N.J.) at 100V for 2.5 hours. COX-2 rabbit polyclonal antibody (Santa Cruz Biotechnology, Santa Cruz, Calif.) was diluted 1:1000 in 5% milk Tris-buffered saline with 0.5% Tween-20 (TBS-T). The secondary antibody (goat, anti-rabbit IgG, HRP conjugated, Santa Cruz Biotechnology; Santa Cruz, Calif.) was diluted 1:1000 in 5% milk in TBS-T. Detection was visualized on blue sensitive autoradiographic film (Marsh Bioproducts; Rochester, N.Y.) with a chemiluminescence (ECLplus) detection kit (GE Healthcare; Piscataway, N.J.).
After an 8 hour treatment with lipopolysaccharide (LPS) and H. gentianoides fractions, RAW 264.7 cells were rinsed twice with ice cold 1× phosphate buffered saline (PBS). […] The protein concentration in each lysate was determined using the bicinchonic acid and copper sulfate protein assay (Sigma; St. Louis, Mo.). […]

| Structure (SMILES) | lowest tested dose with significant reduction of PGE2 concentrations [1] [µM] | tested dose from which cytotoxicity is significant (RAW264.7 macrophages; RAW264.7 macrophages) [µM] | cyclooxygenase-1 protein (cyclooxygenase-1) | cyclooxygenase-2 enzyme (cyclooxygenase-2) | doses at which significant cytotoxicity stops (RAW264.7 macrophages; RAW264.7 macrophages, tested 0.5-100 μM) [µM] | cytotoxicity (RAW264.7 macrophages; dose of 100 μM) |
| --- | --- | --- | --- | --- | --- | --- |
| CC(C)=CCc1c(O)c(CC2=C(O)C(C)(C)C(=O)C(C(=O)C(C)C)=C2O)c(O)c(C(=O)C(C)C)c1O [uliginosin A] | 10 | 100 |  |  |  |  |
| Cc1c(O)c(CC2=C(O)C(C)(C)C(=O)C(C(=O)C(C)C)=C2O)c(O)c(C(=O)C(C)C)c1O [saroaspidin A] | 2 |  | does not appear to be affected | reduces | ≤ 10 |  |
| CC(C)=CCc1c(O)c(CC2=C(O)C(C)=C(O)C(CC=C(C)C)(C(=O)C(C)C)C2=O)c(O)c(C(=O)C(C)C)c1O (centres unmarked) [hyperbrasilol C] | 10 |  |  |  |  | no significant cytotoxicity |
